# Reference: patent US9682140B2, “Ezrin-derived peptides and pharmaceutical compositions thereof” (priority 2016, dated 2017)
# Key:
# [1] = tested on: encephalomyocarditis virus; assay: Antiviral (interferon-inducing) activity in culture of HELA human cervical carcinoma cell line; format: cell-based; conditions: 100 LD50 of encephalomyocarditis virus
# Method: (§1) In this methodology in vitro, we pretreated different types of cells with the studied peptides, and then the cells were infected with a dose of 100 LD50 of encephalomyocarditis virus. 24 hours after the infection the cytopathic effect of the virus was assessed in order to evaluate protective activity of the tested compound if the latter has the ability to bring the cells to a state, resistant to the virus, which is deadly for cells.
# (§2) The lower is the concentration which protects 50% of cells from death due to the infection at a dose of 100 LD50 of encephalomyocarditis virus, the higher is antiviral (interferon-inducing) activity of the tested compound.
# (§3) The peptides were dissolved in distilled water, and then sterilized by passing through filters with pore size 0.2 μm to obtain the stock solutions of 1-2 mg/ml. On day 0, cells were seeded in the wells of 96-well plate in complete culture medium with cell density of 200 thousands of cells in 1 ml. On day 1, serial dilutions of each tested sample were prepared (24 serial dilutions in increments of 2) in triplets in the wells of the 96-well plate. On day 3, all the cultures were infected with a dose of 100 TCID50/ml of encephalomyocarditis virus strain “Columbia SK-Col-SK”. Finally, on day 4, cytopathic effect of the virus was assessed by using Leitz inverted microscope in the presence of different concentrations of the tested peptide or in the cultures without peptide (control).
# (§4) Antiviral effect of the drug product was assessed based on minimal concentration thereof protecting 50% of the cells from death caused by encephalomyocarditis virus at a dose of 100 TCID50/ml. Interferon titre (U/ml) was calculated as a value, inverse to the maximal dilution of the drug product, which protected 50% of the cells from death caused by encephalomyocarditis virus at a dose of 100 TCID50/ml.
# (§5) HELA human cervical carcinoma cell line was obtained from Research Institute of Virology named after Ivanovskiy (Moscow). Complete medium for cells culturing, peptides and compositions thereof, as well as assessment method for their antiviral (interferon-inducing) activity were the same as described in the Example 5.
# [2] = tested on: encephalomyocarditis virus; assay: Antiviral (interferon-inducing) activity in culture of PLC/PRF/5 (Alexander) human hepatoma cell line; format: cell-based, encephalomyocarditis virus strain Columbia SK-Col-SK; conditions: for Antiviral efficacy (minimal compound concentration protecting 50% of the cells from death) / Titre of induced interferon (inverse to the maximal dilution protecting 50% of the cells): PLC/PRF/5 (Alexander) human hepatoma cells, 100 LD50 of encephalomyocarditis virus
# Method: as §1, §2
# PLC/PRF/5 (Alexander) human hepatoma cell line was obtained from Research Institute of Virology named after Ivanovskiy (Moscow). Complete medium for cells culturing was prepared on the basis of MEM Eagle medium supplemented with 10% fetal calf serum (FCS), L-glutamine (300 μg/ml), and penicillin (100 U/ml).
# as §3, §4
# [3] = tested on: encephalomyocarditis virus; assay: Antiviral (interferon-inducing) activity in culture of Girardi Heart human epithelial cell line; format: cell-based; conditions: for Antiviral efficacy (minimal compound concentration protecting 50% of the cells from death) / Titre of induced interferon (inverse to the maximal dilution protecting 50% of the cells): Girardi Heart epithelial cells, 100 LD50 of encephalomyocarditis virus
# Method: as §1, §2, §3, §4
# as §5, with “The culture of Girardi Heart” for “HELA”, “epithelial” for “cervical carcinoma”
# [4] = tested on: MAPK/ERK signaling pathway; assay: Activation of MAPK/ERK signaling pathway in BALB/c mouse fibroblasts (immune blotting of phospho-p44/42 MAPK); format: cell-based
# Method: Peptide […] (SEQ ID No: 1) was obtained as described in Example 1, BALB/c mouse fibroblast were purchased from American Type Culture Collection and propagated in a complete medium consisting of high glucose DMEM supplemented with 10% fetal calf serum, 1 mM sodium pyruvate, 1:50 MEM non-essential amino acids, 2 mM L-glutamine, 10 μg/ml gentamicin and 50 μM β-mercaptoethanol. Cells were grown in 10 cm culture dishes at 5% CO2 and 37° C. Cell passages were made at the 50-60% confluency. For cell detachment, 0.05% trypsin/EDTA was used with following centrifugation (470×g, 15 min) in 10-fold volume of washing medium containing 10% FCS to quench trypsin. Supernatant was discarded and the cell pellet was suspended in 10 ml of complete culture medium, then cell numbers were counted using hemocytometer before cells were used for experiments.
# Fibroblasts were cultured in 8-well culture plates, the examined peptide or cytokine TGF-β1 (positive control) solution, or equivalent volume of culture medium (negative control) were added into respective triplicate cultures. Cells were incubated in presence of the peptide […] SEQ ID No: 1 (10 μg/ml) or TGF-β1, or without any effector compound during 1 or 6 hours at 5% C02 and 37° C. At the time points indicated, cell were harvested, washed twice with PBS and lyzed using the cell extraction buffer in the presence of protease inhibitors during 30 min at 4° C. Extracts were cleared by centrifugation (14,000×g, 10 min, 4° C.). Protein concentration was measured using protein assay reagent (Pierce, 23225). Appropriate dilutions of extracts ([…] protein per a track) were then fractionated in 8% SDS-PAGE and then transferred onto PVDF-membrane (Amersham) for immune blotting. Targeted proteins were detected using antibodies specific to phospho-p44/42 MAPK (Cell Signaling, 4370) and GAPDH (Abcam ab8245). Protein bands were visualized and then measured their intensities using ImageJ soft-ware. Data were expressed as a value (pixels per a band) of ERK1, ERK2 or phospho-ERK1 and phospho-ERK2 normalized to a value of respective GAPDH-bands. Mean values+SD were calculated using the data of 3 independent runs.
# [5] = 1 hour after activation, peptide 10 μg/ml, TGF-β1 5 ng/ml, negative control 0.1+0.002
# [6] = 1 hour after activation, peptide 10 μg/ml, TGF-β1 5 ng/ml, negative control 0.4+0.01
# [7] = 6 hour time point, non-activated cultures 0.1+0.007
# [8] = 6 hours after activation, negative control 0.1+0.01
Substance,Antiviral efficacy (minimal compound concentration protecting 50% of the cells from death) [1] [µg/mL],Titre of induced interferon (inverse to the maximal dilution protecting 50% of the cells) [1] [U/ml],Antiviral efficacy (minimal compound concentration protecting 50% of the cells from death) [2] [µg/mL],Titre of induced interferon (inverse to the maximal dilution protecting 50% of the cells) [2] [U/ml],Antiviral efficacy (minimal compound concentration protecting 50% of the cells from death) [3] [µg/mL],Titre of induced interferon (inverse to the maximal dilution protecting 50% of the cells) [3],"phospho-ERK1 normalized value (band intensity normalized to GAPDH) [4, 5]","phospho-ERK2 normalized value (band intensity normalized to GAPDH) [4, 6]","phospho-ERK2 normalized value (band intensity normalized to GAPDH) [4, 7]","phospho-ERK1 normalized value (band intensity normalized to GAPDH) [4, 8]","immunostimulatory activity compared with the activity of HEP-1 peptide ([2]; Table 1, PLC/PRF/5 cells) [times]","immunostimulatory activity compared with the activity of HEP-1 peptide ([3]; Table 3, Girardi Heart cells)"
NH2_Arg-Glu-Thr-Val-Glu-Arg-Glu-Lys-Glu_COOH (H-RETVEREKE-OH) [HP6-14],0.49,2048,0.78,1280,0.006,163 840 U/ml,,,,,,
NH2_Gly-Glu-Lys-Lys-Arg-Arg-Glu-Thr-Val-Glu-Arg-Glu-Gly-Gly_COOH (H-GEKKRRETVEREGG-OH) [HP-V2],7.8,128,0.78,1280,0.0015,655 360 U/ml,0.4+0.02,1.3+0.05,0.1+0.01,0.1+0.006,4,the same
NH2_Thr-Glu-Lys-Lys-Arg COOH (H-TEKKR-OH) [HP1-5],0.49,2048,1.6,640,0.0015,655 360 U/ml,,,,,,
NH2_Thr-Glu-Lys-Lys-Arg-Arg-Glu-Thr-Val-Glu-Arg-Glu-Lys-Glu_COOH (H-TEKKRRETVEREKE-OH) [HEP-1],3.9,256,3.0,320,0.0015,655 360 U/ml,,,,,,
TGF-β1: cytokine TGF-β1 (positive control),,,,,,,0.5+0.02,1.9+0.1,0.35+0.02,0.3+0.02,,
